What was measured:
MT4 [1] = experiment: Tested in vitro for the cytotoxic activity against uninfected MT-4 cells; format: functional, cell-based; details: Homo sapiens
[2] = Tested in vitro for the cytotoxic activity against uninfected human peripheral blood mononuclear (PBM) cells; format: functional
[3] = Tested in vitro for the antiviral assay in mitogen stimulated human peripheral blood mononuclear (PBM) cells infected with HIV-1 (strain LAV); format: functional
Vero = experiment: Tested in vitro for the cytotoxic activity against uninfected Vero cells; format: functional, cell-based; details: Chlorocebus sabaeus
MT4 [4] = experiment: Tested in vitro for the cytotoxic activity against uninfected MT-4 cells at 200 uM; format: functional; details: Homo sapiens
CCRF-CEM = experiment: Tested in vitro for the cytotoxic activity against uninfected CEM cells; format: functional, cell-based; details: Homo sapiens

EC50 [3] | SMILES | IC50 (MT4 [1]) | IC50 [2] | IC50 (Vero) | inhibition at 200 µM (MT4 [4]) | IC50 (CCRF-CEM)
1.7 µM | O=c1[nH]c(=O)n(C2COC(CO)O2)cc1Cl (stereo not drawn) | > 200 µM | > 100 µM | > 100 µM | – | –
> 100 µM | CCc1cn(C2COC(CO)O2)c(=O)[nH]c1=O (stereo not drawn) | – | > 100 µM | > 100 µM | 30% | –
2.8 µM | O=c1[nH]c(=O)n([C@H]2CO[C@@H](CO)O2)cc1Br | > 200 µM | > 100 µM | > 100 µM | – | –
28.5 µM | O=c1[nH]c(=O)n([C@H]2CO[C@@H](CO)O2)cc1F | – | > 100 µM | > 100 µM | – | > 100 µM
93 µM | O=c1[nH]c(=O)n(C2COC(CO)O2)cc1C(F)(F)F (stereo not drawn) | > 200 µM | > 100 µM | > 100 µM | – | –
57.5 µM | O=c1ccn([C@H]2CO[C@@H](CO)O2)c(=O)[nH]1 | > 200 µM | > 100 µM | > 100 µM | – | –
> 100 µM | O=c1[nH]c(=O)n(C2COC(CO)O2)cc1I (stereo not drawn) | > 200 µM | > 100 µM | > 100 µM | – | –
0.005 µM | Nc1ccn([C@H]2CO[C@@H](CO)O2)c(=O)n1 | – | > 100 µM | 0.17 µM | 66% | 0.08 µM

— ChEMBL document CHEMBL1149950, “The synthesis and anti-hiv activity of pyrimidine dioxolanyl nucleosides” (Bioorg Med Chem Lett, 1993)
